Laboratory results: BindingDB's records for doi:10.1016/j.ejmech.2018.04.062 (Lindsley F. Kimball Research Institute, 2018)

Experiments:
Cytochrome P450 1A2 = biological target: T1, Cytochrome P450 1A2 (Homo sapiens, UniProt P05177); experiment: Inhibition of human liver microsome CYP1A2 using phenacetin as substrate incubated for 20 mins by LC-MS/MS analysis
T1 sequence (P05177 whole entry): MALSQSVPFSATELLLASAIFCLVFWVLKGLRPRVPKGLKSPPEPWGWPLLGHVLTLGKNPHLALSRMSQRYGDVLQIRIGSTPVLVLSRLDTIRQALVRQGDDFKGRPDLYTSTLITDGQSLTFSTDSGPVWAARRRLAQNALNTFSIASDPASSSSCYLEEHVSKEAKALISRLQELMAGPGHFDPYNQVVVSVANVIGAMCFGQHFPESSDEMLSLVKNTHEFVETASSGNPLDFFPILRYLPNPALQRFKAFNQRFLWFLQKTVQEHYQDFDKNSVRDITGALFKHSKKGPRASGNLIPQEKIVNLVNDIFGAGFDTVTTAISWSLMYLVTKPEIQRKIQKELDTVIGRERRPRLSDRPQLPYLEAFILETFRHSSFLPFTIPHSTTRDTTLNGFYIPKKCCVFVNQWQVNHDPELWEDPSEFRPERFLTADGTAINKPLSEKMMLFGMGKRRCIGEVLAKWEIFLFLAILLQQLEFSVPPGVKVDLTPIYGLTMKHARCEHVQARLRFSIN

Cytochrome P450 2C8 = biological target: T2, Cytochrome P450 2C8 (Homo sapiens, UniProt P10632); experiment: Inhibition of human liver microsome CYP2C8 using paclitaxel as substrate incubated for 20 mins by LC-MS/MS analysis
T2 sequence (P10632 whole entry): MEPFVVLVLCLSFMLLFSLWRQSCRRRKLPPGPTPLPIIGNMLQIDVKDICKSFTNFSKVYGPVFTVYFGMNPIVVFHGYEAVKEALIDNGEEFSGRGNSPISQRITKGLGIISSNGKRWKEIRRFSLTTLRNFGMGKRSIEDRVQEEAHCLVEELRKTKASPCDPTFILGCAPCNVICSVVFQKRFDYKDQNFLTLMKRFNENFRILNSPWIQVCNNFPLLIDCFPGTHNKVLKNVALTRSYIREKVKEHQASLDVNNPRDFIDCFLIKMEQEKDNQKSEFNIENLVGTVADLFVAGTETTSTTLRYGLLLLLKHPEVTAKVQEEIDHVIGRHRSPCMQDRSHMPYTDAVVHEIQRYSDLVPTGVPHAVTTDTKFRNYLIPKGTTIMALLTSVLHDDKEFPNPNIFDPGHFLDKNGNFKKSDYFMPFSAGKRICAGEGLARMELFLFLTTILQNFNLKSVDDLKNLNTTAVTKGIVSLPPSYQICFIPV

Cytochrome P450 2C9 = Cytochrome P450 2C9 (Homo sapiens, UniProt P11712); experiment: Inhibition of human liver microsome CYP2C9 using diclofenac as substrate incubated for 20 mins by LC-MS/MS analysis
Cytochrome P450 2C9, sequence (P11712 whole entry): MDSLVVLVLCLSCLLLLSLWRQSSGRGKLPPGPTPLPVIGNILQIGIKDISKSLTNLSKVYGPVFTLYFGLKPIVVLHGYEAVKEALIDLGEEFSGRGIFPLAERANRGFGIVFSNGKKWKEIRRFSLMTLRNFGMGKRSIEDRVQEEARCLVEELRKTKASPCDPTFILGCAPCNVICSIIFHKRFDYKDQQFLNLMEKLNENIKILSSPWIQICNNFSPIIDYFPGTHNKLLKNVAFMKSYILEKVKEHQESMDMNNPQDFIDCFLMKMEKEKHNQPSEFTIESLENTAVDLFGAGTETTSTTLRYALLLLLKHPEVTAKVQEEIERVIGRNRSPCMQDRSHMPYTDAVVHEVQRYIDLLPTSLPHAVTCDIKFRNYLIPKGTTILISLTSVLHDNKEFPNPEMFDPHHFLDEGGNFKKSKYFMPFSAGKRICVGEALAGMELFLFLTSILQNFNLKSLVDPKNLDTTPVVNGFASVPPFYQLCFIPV

Cytochrome P450 2D6 = Cytochrome P450 2D6 (Homo sapiens, UniProt P10635); experiment: Inhibition of human liver microsome CYP2D6 using bufuralol as substrate incubated for 20 mins by LC-MS/MS analysis
Cytochrome P450 2D6, sequence (P10635 whole entry): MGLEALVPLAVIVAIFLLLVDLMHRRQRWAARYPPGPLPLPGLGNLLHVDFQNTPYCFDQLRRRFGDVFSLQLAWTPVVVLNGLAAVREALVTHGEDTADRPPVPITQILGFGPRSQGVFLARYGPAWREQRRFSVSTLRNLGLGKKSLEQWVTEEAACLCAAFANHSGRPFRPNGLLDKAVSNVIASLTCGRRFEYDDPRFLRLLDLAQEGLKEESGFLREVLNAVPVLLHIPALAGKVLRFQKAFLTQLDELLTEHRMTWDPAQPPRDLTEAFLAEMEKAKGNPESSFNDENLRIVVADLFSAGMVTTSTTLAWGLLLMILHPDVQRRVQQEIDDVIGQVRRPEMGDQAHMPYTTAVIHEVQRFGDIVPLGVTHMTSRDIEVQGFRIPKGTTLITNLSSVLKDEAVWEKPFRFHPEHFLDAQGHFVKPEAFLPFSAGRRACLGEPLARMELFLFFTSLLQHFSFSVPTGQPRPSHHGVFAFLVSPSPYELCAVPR

[1] = biological target: Potassium voltage-gated channel subfamily H member 2 (Homo sapiens, UniProt Q12809); experiment: Inhibition of human ERG transfected in HEK293 cells assessed as reduction in channel current at -80 mV holding potential by whole-cell patch clamp method
Potassium voltage-gated channel subfamily H member 2, sequence (Q12809 whole entry): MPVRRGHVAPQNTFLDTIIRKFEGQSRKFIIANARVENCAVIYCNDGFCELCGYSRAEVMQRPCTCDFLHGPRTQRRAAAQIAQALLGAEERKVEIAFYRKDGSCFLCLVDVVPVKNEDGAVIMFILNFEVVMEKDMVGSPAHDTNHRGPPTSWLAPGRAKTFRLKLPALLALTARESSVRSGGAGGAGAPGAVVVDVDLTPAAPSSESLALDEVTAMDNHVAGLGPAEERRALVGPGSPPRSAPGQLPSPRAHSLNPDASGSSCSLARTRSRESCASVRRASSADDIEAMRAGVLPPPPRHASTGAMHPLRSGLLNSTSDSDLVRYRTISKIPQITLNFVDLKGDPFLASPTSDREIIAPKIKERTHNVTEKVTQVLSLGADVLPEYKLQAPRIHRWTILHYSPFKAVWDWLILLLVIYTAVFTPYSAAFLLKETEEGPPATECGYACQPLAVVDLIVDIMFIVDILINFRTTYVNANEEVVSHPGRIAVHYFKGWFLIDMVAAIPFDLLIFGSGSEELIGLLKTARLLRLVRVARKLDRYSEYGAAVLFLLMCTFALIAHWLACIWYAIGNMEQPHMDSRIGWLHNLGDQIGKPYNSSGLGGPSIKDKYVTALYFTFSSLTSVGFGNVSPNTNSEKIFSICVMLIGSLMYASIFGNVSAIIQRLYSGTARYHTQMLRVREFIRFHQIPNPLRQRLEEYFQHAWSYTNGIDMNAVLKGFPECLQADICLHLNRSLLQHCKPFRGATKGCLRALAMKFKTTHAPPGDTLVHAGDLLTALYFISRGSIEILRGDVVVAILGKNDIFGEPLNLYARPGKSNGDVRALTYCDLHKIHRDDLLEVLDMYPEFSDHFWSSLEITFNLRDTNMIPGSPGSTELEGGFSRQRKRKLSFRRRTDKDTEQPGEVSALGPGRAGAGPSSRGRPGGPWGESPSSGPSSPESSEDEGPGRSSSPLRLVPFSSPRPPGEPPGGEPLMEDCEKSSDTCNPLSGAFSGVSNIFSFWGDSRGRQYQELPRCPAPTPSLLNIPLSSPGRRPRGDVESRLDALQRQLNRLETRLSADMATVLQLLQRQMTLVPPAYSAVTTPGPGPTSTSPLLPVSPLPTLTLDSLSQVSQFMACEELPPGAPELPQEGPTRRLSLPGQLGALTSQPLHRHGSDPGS

IC50 (Cytochrome P450 1A2): > 25 µM | IC50 (Cytochrome P450 2C8): > 25 µM | IC50 (Cytochrome P450 2C9): > 25 µM | IC50 (Cytochrome P450 2D6): > 25 µM | IC50 [1]: 3 µM
Structure (SMILES): NC[C@H](NC(=O)c1ccc(-c2ccc(C(F)(F)F)c(F)c2)[nH]1)c1nc(CO)cs1
